Experimental data from patent US20230391768A2, “IMIDAZOPYRIDINE DERIVATIVES AND AZA-IMIDAZOPYRIDINE DERIVATIVES AS JANUS KINASE 2 INHIBITORS AND USES THEREOF” (Dana-Farber Cancer Institute, Inc., priority 2018, published 2023).

target: JAK2 (Homo sapiens (Human), UniProt O60674); experiment: JAK2 Z-Lyte biochemical assay; conditions: commercial JAK2 Z-Lyte assay from Invitrogen
Protocol: The JAK2 Z-Lyte biochemical assay was performed according to manufacturer's instructions (Life Technologies).

Chain of JAK2 (O60674 whole entry): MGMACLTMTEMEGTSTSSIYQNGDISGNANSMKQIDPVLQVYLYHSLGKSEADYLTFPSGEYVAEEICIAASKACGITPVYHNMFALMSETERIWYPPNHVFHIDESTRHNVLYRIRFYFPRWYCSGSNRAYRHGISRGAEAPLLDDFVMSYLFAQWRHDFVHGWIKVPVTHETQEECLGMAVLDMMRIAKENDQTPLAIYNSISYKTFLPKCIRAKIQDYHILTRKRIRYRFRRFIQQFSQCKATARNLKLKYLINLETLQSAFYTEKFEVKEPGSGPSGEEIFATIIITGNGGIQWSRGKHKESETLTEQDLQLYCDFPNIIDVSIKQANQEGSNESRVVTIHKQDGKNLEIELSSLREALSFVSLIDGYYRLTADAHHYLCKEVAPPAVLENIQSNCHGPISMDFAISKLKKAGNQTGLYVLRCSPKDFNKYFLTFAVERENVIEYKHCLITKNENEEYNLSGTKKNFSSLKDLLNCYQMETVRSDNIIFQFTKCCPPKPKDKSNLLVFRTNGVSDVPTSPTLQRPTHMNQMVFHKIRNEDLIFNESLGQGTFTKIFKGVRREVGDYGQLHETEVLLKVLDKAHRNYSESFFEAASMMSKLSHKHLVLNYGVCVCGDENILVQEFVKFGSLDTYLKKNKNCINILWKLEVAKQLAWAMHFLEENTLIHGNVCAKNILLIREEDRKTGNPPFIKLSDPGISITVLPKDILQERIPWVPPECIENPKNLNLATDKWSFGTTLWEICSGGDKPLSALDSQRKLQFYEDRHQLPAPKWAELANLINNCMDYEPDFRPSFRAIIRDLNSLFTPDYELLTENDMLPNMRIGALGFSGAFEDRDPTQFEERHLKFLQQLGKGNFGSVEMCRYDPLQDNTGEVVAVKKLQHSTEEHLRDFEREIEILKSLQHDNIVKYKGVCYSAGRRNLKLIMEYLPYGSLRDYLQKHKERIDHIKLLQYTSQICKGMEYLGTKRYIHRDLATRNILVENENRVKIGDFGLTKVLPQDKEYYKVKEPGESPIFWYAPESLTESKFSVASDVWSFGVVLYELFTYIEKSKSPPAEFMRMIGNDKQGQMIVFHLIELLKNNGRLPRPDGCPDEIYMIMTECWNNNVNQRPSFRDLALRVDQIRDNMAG

IC50 [nM] | SMILES
2620 | CCS(=O)(=O)N1CCN(Cc2cc(NC(=O)c3ccc(C)c(-c4ccc5nc(NC(=O)C6CC6)cn5n4)c3)cc(C(F)(F)F)c2)CC1 [Compound I-11, 3-(2-(cyclopropanecarboxamido)imidazo[1,2-b]pyridazin-6-yl)-N-(3-((4-(ethylsulfonyl)piperazin-1-yl)methyl)-5-(trifluoromethyl)phenyl)-4-methylbenzamide]
1350 | CC(=O)N1CCN(Cc2cc(NC(=O)c3ccc(C)c(-c4ccc5nc(NC(=O)C6CC6)cn5n4)c3)cc(C(F)(F)F)c2)CC1 [Compound I-10, N-(3-((4-acetylpiperazin-1-yl)methyl)-5-(trifluoromethyl)phenyl)-3-(2-(cyclopropanecarboxamido)imidazo[1,2-b]pyridazin-6-yl)-4-methylbenzamide]
> 10000 | CCN1CCN(Cc2cc(NC(=O)c3cc(-c4ccc5nc(NC(=O)C6CC6)cn5n4)c(C)nc3O)cc(C(F)(F)F)c2)CC1 [Compound I-21, 5-(2-(cyclopropanecarboxamido)imidazo[1,2-b]pyridazin-6-yl)-N-(3-((4-ethylpiperazin-1-yl)methyl)-5-(trifluoromethyl)phenyl)-2-hydroxy-6-methylnicotinamide]
8760 | CCN1CCN(Cc2cc(NC(=O)c3cc(-c4ccc5nc(NC(=O)C6CC6)cn5n4)c(C)cc3C)cc(C(F)(F)F)c2)CC1 [Compound I-19, 5-(2-(cyclopropanecarboxamido)imidazo[1,2-b]pyridazin-6-yl)-N-(3-((4-ethylpiperazin-1-yl)methyl)-5-(trifluoromethyl)phenyl)-2,4-dimethylbenzamide]
824 | CCN1CCN(Cc2cc(C(=O)Nc3ccc(C)c(-c4ccc5nc(NC(=O)C6CC6)cn5c4)c3)cc(C(F)(F)F)c2)CC1 [Compound I-8, N-(3-(2-(cyclopropanecarboxamido)imidazo[1,2-a]pyridin-6-yl)-4-methylphenyl)-3-((4-ethylpiperazin-1-yl)methyl)-5-(trifluoromethyl)benzamide]
1100 | CCN1CCN(Cc2ccc(NC(=O)c3ccc(C)c(-c4ccc5nc(NC(=O)C6CC6)cn5n4)c3)cc2C(F)(F)F)CC1 [Compound I-15, 3-(2-(cyclopropanecarboxamido)imidazo[1,2-b]pyridazin-6-yl)-N-(4-((4-ethylpiperazin-1-yl)methyl)-3-(trifluoromethyl)phenyl)-4-methylbenzamide]
486 | CCN1CCN(Cc2cc(NC(=O)c3cnc(C)c(-c4ccc5nc(NC(=O)C6CC6)cn5n4)c3)cc(C(F)(F)F)c2)CC1 [Compound I-16, 5-(2-(cyclopropanecarboxamido)imidazo[1,2-b]pyridazin-6-yl)-N-(3-((4-ethylpiperazin-1-yl)methyl)-5-(trifluoromethyl)phenyl)-6-methylnicotinamide]
9510 | CCN1CCN(Cc2cc(NC(=O)c3ccc(C)c(-c4cnc5nc(NC(=O)C6CC6)cn5c4)c3)cc(C(F)(F)F)c2)CC1 [Compound I-5, 3-(2-(cyclopropanecarboxamido)imidazo[1,2-a]pyrimidin-6-yl)-N-(3-((4-ethylpiperazin-1-yl)methyl)-5-(trifluoromethyl)phenyl)-4-methylbenzamide]
3180 | CCOC(=O)N1CCN(Cc2cc(NC(=O)c3ccc(C)c(-c4ccc5nc(NC(=O)C6CC6)cn5n4)c3)cc(C(F)(F)F)c2)CC1 [Compound I-13, ethyl 4-(3-(3-(2-(cyclopropanecarboxamido)imidazo[1,2-b]pyridazin-6-yl)-4-methylbenzamido)-5-(trifluoromethyl)benzyl)piperazine-1-carboxylate]
1530 | CCN1CCN(Cc2cc(NC(=O)c3ccc(C)c(-c4ccc5[nH]c(NC(=O)C6CC6)nc5n4)c3)cc(C(F)(F)F)c2)CC1 [Compound I-27, 3-(2-(cyclopropanecarboxamido)-1H-imidazo[4,5-b]pyridin-5-yl)-N-(3-((4-ethylpiperazin-1-yl)methyl)-5-(trifluoromethyl)phenyl)-4-methylbenzamide]
508 | CCN1CCN(Cc2cc(NC(=O)c3ccc(C)c(-c4ccc5nc(NC(=O)C6CC6)nn5c4)c3)cc(C(F)(F)F)c2)CC1 [Compound I-1, 3-(2-(cyclopropanecarboxamido)-[1,2,4]triazolo[1,5-a]pyridin-6-yl)-N-(3-((4-ethylpiperazin-1-yl)methyl)-5-(trifluoromethyl)phenyl)-4-methylbenzamide]
981 | CCN1CCN(Cc2cc(NC(=O)c3ccc(C)c(-c4ccn5nc(NC(=O)C6CC6)nc5c4)c3)cc(C(F)(F)F)c2)CC1 [Compound I-3, 3-(2-(cyclopropanecarboxamido)-[1,2,4]triazolo[1,5-a]pyridin-7-yl)-N-(3-((4-ethylpiperazin-1-yl)methyl)-5-(trifluoromethyl)phenyl)-4-methylbenzamide]
301 | Cc1ccc(C(=O)Nc2cc(CN3CCNCC3)cc(C(F)(F)F)c2)cc1-c1ccc2nc(NC(=O)C3CC3)cn2n1 [Compound I-9, 3-(2-(cyclopropanecarboxamido)imidazo[1,2-b]pyridazin-6-yl)-4-methyl-N-(3-(piperazin-1-ylmethyl)-5-(trifluoromethyl)phenyl)benzamide]
399 | CCc1ccc(C(=O)Nc2cc(CN3CCN(CC)CC3)cc(C(F)(F)F)c2)cc1-c1ccc2nc(NC(=O)C3CC3)cn2n1 [Compound I-20, 3-(2-(cyclopropanecarboxamido)imidazo[1,2-b]pyridazin-6-yl)-4-ethyl-N-(3-((4-ethylpiperazin-1-yl)methyl)-5-(trifluoromethyl)phenyl)benzamide]
1900 | CCN1CCN(Cc2cc(NC(=O)c3ccc(C(F)(F)F)c(-c4ccc5nc(NC(=O)C6CC6)cn5n4)c3)cc(C(F)(F)F)c2)CC1 [Compound I-22, 3-(2-(cyclopropanecarboxamido)imidazo[1,2-b]pyridazin-6-yl)-N-(3-((4-ethylpiperazin-1-yl)methyl)-5-(trifluoromethyl)phenyl)-4-(trifluoromethyl)benzamide]
> 10000 | CCN1CCN(Cc2cc(NC(=O)c3ccc(C)c(-c4ccc5c(c4)nc(NC(=O)C4CC4)n5C)c3)cc(C(F)(F)F)c2)CC1 [Compound I-26, 3-(2-(cyclopropanecarboxamido)-1-methyl-1H-benzo[d]imidazol-5-yl)-N-(3-((4-ethylpiperazin-1-yl)methyl)-5-(trifluoromethyl)phenyl)-4-methylbenzamide]
950 | CCN1CCN(Cc2cc(NC(=O)c3ccc(C)c(-c4cn5cc(NC(=O)C6CC6)nc5cn4)c3)cc(C(F)(F)F)c2)CC1 [Compound I-4, 3-(2-(cyclopropanecarboxamido)imidazo[1,2-a]pyrazin-6-yl)-N-(3-((4-ethylpiperazin-1-yl)methyl)-5-(trifluoromethyl)phenyl)-4-methylbenzamide]
772 | Cc1ccc(C(=O)Nc2cc(CN3CCN(CC4CC4)CC3)cc(C(F)(F)F)c2)cc1-c1ccc2nc(NC(=O)C3CC3)cn2n1 [Compound I-14, 3-(2-(cyclopropanecarboxamido)imidazo[1,2-b]pyridazin-6-yl)-N-(3-((4-(cyclopropylmethyl)piperazin-1-yl)methyl)-5-(trifluoromethyl)phenyl)-4-methylbenzamide]
> 3330 | CCN1CCN(Cc2cc(NC(=O)c3ccc(C)c(-c4ccc5nc(N)cn5n4)c3)cc(C(F)(F)F)c2)CC1 [Compound I-24, 3-(2-aminoimidazo [1,2-b]pyridazin-6-yl)-N-(3-((4-ethylpiperazin-1-yl)methyl)-5-(trifluoromethyl)phenyl)-4-methylbenzamide]
5120 | CCN1CCN(Cc2cc(NC(=O)c3ccc(C#N)c(-c4ccc5nc(NC(=O)C6CC6)cn5n4)c3)cc(C(F)(F)F)c2)CC1 [Compound I-23, 4-cyano-3-(2-(cyclopropanecarboxamido)imidazo[1,2-b]pyridazin-6-yl)-N-(3-((4-ethylpiperazin-1-yl)methyl)-5-(trifluoromethyl)phenyl)benzamide]
985 | CCN1CCN(Cc2cc(NC(=O)c3cc(-c4ccc5nc(NC(=O)C6CC6)cn5n4)c(C)cn3)cc(C(F)(F)F)c2)CC1 [Compound I-18, 4-(2-(cyclopropanecarboxamido)imidazo[1,2-b]pyridazin-6-yl)-N-(3-((4-ethylpiperazin-1-yl)methyl)-5-(trifluoromethyl)phenyl)-5-methylpicolinamide]
934 | CCN1CCN(Cc2cc(NC(=O)c3cc(-c4ccc5nc(NC(=O)C6CC6)cn5n4)c(C)cc3F)cc(C(F)(F)F)c2)CC1 [Compound I-17, 5-(2-(cyclopropanecarboxamido)imidazo[1,2-b]pyridazin-6-yl)-N-(3-((4-ethylpiperazin-1-yl)methyl)-5-(trifluoromethyl)phenyl)-2-fluoro-4-methylbenzamide]
7020 | CCN1CCN(Cc2cc(NC(=O)c3ccc(C)c(-c4ccc5nc(NC(=O)C6CC6)n(C)c5c4)c3)cc(C(F)(F)F)c2)CC1 [Compound I-25, 3-(2-(cyclopropanecarboxamido)-1-methyl-1H-benzo[d]imidazol-6-yl)-N-(3-((4-ethylpiperazin-1-yl)methyl)-5-(trifluoromethyl)phenyl)-4-methylbenzamide]
1820 | COCCN1CCN(Cc2cc(NC(=O)c3ccc(C)c(-c4ccc5nc(NC(=O)C6CC6)cn5n4)c3)cc(C(F)(F)F)c2)CC1 [Compound I-12, 3-(2-(cyclopropanecarboxamido)imidazo[1,2-b]pyridazin-6-yl)-N-(3-((4-(2-methoxyethyl)piperazin-1-yl)methyl)-5-(trifluoromethyl)phenyl)-4-methylbenzamide]
672 | CCN1CCN(Cc2ccc(NC(=O)c3ccc(C)c(-c4ccc5nc(NC(=O)C6CC6)cn5c4)c3)cc2C(F)(F)F)CC1 [Compound I-7, 3-(2-(cyclopropanecarboxamido)imidazo[1,2-a]pyridin-6-yl)-N-(4-((4-ethylpiperazin-1-yl)methyl)-3-(trifluoromethyl)phenyl)-4-methylbenzamide]

test system: cell lines or patient-derived xenografts from patients with CRLF2-rearranged B-ALL; experiment: not given; conditions: cited from earlier work

SMILES | IC50 [nM]
N#CC[C@H](C1CCCC1)n1cc(-c2ncnc3[nH]ccc23)cn1 [Ruxolitinib] | > 20000
